According to US20260132129A1 (Genesis Therapeutics, Inc., priority 2022, published 2026):

Biological target: T1, PI3Kα H1047R (T47D cells) (Homo sapiens, UniProt P42336, H1047R)
T1 construct: endogenous in cells; host or cells: T47D cells
Test: PI3Kα cellular assay: pAKT HTRF in T47D cells after EGF stimulation
Format: cell-based
Settings: for IC50: T47D cells (PI3Kα H1047R), pAKT S473 HTRF
Summary of the method: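 pAKT read by HTRF in lysates of EGF-stimulated (20 ng/mL, 10 min) T47D H1047R cells. Before stimulation, serum-starved cells (16 h) received compound for 1 h at 37 °C, dosed from 10,000 nM down to 0.5 nM in 3-fold steps.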

[1] = selectivity T47D (H1047R) over SKBR3 (WT), pAKT HTRF
[2] = selectivity of T47D (H1047R) over SKBR3 (WT) pAKT IC50
[3] = 1 hr compound, 20 ng/ml EGF 10 min

T1 sequence (P42336 whole entry H1047R): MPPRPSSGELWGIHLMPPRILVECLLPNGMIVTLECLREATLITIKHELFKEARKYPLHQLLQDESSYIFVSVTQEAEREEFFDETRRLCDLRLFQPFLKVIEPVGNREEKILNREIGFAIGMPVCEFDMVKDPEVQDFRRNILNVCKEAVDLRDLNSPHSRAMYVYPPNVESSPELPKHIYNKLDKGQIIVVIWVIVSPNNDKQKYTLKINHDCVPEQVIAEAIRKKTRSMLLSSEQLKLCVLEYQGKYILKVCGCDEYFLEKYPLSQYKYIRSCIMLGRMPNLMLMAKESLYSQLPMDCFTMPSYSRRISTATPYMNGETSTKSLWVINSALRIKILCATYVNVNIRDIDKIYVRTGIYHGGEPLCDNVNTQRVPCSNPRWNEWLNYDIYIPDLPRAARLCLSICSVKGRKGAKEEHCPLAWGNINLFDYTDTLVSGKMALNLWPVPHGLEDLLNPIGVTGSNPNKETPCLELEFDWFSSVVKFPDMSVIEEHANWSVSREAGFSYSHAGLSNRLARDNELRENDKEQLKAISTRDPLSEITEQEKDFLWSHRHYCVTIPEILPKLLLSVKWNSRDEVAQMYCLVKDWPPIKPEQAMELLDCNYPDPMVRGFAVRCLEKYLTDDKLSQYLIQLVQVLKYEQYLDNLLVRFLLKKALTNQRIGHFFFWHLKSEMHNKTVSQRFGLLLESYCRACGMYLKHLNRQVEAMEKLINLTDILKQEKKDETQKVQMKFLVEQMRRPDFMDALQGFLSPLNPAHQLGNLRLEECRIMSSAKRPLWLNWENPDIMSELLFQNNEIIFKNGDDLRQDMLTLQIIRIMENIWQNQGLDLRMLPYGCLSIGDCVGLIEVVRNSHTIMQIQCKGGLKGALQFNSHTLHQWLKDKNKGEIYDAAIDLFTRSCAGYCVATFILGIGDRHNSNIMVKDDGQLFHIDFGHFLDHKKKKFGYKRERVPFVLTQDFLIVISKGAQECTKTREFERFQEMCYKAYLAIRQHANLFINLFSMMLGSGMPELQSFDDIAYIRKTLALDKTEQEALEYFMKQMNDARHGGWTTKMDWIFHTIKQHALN
T1 sequence (P27986 whole entry partner): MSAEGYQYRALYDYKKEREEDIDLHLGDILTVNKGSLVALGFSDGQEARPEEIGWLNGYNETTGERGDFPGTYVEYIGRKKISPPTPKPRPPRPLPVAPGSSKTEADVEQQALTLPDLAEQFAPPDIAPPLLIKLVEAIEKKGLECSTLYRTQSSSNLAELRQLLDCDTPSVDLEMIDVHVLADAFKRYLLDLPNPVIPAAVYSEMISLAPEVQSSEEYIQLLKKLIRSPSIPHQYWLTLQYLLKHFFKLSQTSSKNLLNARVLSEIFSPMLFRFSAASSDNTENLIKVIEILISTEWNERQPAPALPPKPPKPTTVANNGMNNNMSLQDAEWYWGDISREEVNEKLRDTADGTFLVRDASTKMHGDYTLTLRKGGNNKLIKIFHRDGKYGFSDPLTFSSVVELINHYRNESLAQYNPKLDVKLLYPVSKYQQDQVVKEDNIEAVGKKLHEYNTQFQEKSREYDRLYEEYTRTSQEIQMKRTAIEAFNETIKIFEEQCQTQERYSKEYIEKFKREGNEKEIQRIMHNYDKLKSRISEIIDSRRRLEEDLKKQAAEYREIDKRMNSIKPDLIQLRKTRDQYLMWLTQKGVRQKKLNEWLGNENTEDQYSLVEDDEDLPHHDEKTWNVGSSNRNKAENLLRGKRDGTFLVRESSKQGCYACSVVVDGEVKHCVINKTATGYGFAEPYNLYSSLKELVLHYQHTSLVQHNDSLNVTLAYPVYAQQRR

| SMILES | IC50 (EGF stimulation) [µM] | T47D pAKT S473 HTRF IC50 (H1047R): T47D (H1047R) selectivity over SKBR3 (WT) [1] | T47D pAKT S473 HTRF IC50 (H1047R): T47D (H1047R) selectivity over SKBR3 (WT) [2] | IC50 [3] [µM] |
| --- | --- | --- | --- | --- |
| Cc1cc(C(C)Nc2ccccc2C(=O)O)c2nc(C3CCN(CC(F)F)CC3)cc(=O)n2c1 (stereo not drawn) [Compound 1308] | 0.1 to 0.5 | A (A denotes >20-fold) |  |  |
| Cc1cc([C@@H](C)Nc2ccccc2C(=O)O)c2nc(-c3ccc4ccnn4c3)c(C)c(=O)n2c1 [Compound 1298] | < 0.1 | A (A denotes >20-fold) |  |  |
| Cc1cc([C@H](C)Nc2ccccc2C(=O)O)c2nc(-c3ccccc3)cc(=O)n2c1 [Compound 423] |  | C (C denotes ≤5-fold) |  |  |
| Cc1cc(C(C)Nc2ccccc2C(=O)O)c2nc(-c3ccc4c(c3)c(N)nn4C3CC3)cc(=O)n2c1 (stereo not drawn) [Compound 870] | 0.1 to 0.5 |  | A (A denotes >20-fold) |  |
| Cc1cc([C@H](C)Nc2ccccc2S(N)(=O)=O)c2nc([C@H]3CCCOC3)c(C)c(=O)n2c1 [Compound 1286] | 0.5 to 2 | B (B denotes 20-fold≥value>5-fold) |  |  |
| Cc1cc([C@H](C)Nc2ccccc2C(=O)O)c2nc(-c3ccc4snc(N)c4c3)cc(=O)n2c1 [Compound 810] | > 2 |  | C (C denotes ≤5-fold) |  |
| CC(Nc1ccccc1C(=O)O)c1cc(C#N)cn2c(=O)cc(N3CCOCC3)nc12 (stereo not drawn) [Compound 273] |  | C (C denotes ≤5-fold) |  | > 2 |
| Cc1cc([C@H](C)Nc2ccccc2-c2ccnnc2)c2nc(-c3cccnc3)c(C)c(=O)n2c1 [Compound 1145] | 0.1 to 0.5 | A (A denotes >20-fold) |  |  |
| CC(=O)N1CCC(c2ccc(-c3nc4c([C@@H](C)Nc5ccccc5C(=O)O)cc(C)cn4c(=O)c3C)cc2)CC1 [Compound 1289] | 0.1 to 0.5 | A (A denotes >20-fold) |  |  |
| Cc1cc(C(C)Nc2ccccc2C(=O)O)c2nc(N3CCN(C(C)(C)C(N)=O)CC3)cc(=O)n2c1 (stereo not drawn) [Compound 581] |  | C (C denotes ≤5-fold) |  |  |
| Cc1cc(C(C)Nc2ccccc2C(=O)O)c2nc(C3CCC(NS(C)(=O)=O)CC3)c(C)c(=O)n2c1 (stereo not drawn) [Compound 544] |  | C (C denotes ≤5-fold) |  | > 2 |
| Cc1cc([C@H](C)Nc2ccccc2C(=O)O)c2nc(-c3ccc(CC4CCN(C(=O)C5CC5)CC4)c(F)c3)c(C)c(=O)n2c1 [Compound 1315] |  | C (C denotes ≤5-fold) |  |  |
| Cc1cc(C(C)Nc2ccccc2C(=O)O)c2nc(N3CCN(CCC(N)=O)CC3)cc(=O)n2c1 (stereo not drawn) [Compound 550] |  | C (C denotes ≤5-fold) |  | > 2 |
| Cc1cc([C@H](C)Nc2ccccc2C(=O)O)c2nc(-c3ccc(C(F)F)nc3)c(C)c(=O)n2c1 [Compound 1149] | > 2 | C (C denotes ≤5-fold) |  |  |
| Cc1cc([C@@H](C)Nc2ccccc2S(N)(=O)=O)c2nc([C@@H]3CCCN(CC(F)F)C3)c(C)c(=O)n2c1 [Compound 1309] | 0.5 to 2 | B (B denotes 20-fold≥value>5-fold) |  |  |
| Cc1cc([C@@H](C)Nc2ccccc2S(N)(=O)=O)c2nc(-c3cccnc3)c(C)c(=O)n2c1 [Compound 1107] | < 0.1 | A (A denotes >20-fold) |  |  |
| Cc1cc([C@@H](C)Nc2ccccc2S(N)(=O)=O)c2nc(-c3ccnc(C4CC4)c3)c(C)c(=O)n2c1 [Compound 1095] | > 2 | C (C denotes ≤5-fold) |  |  |
| Cc1cc([C@H](C)Nc2ccccc2C(=O)O)c2nc(-c3ccc4c(c3)CC(F)(F)C4)cc(=O)n2c1 [Compound 854] | > 2 |  |  |  |
| Cc1cc([C@@H](C)Nc2ccccc2C(=O)O)c2nc(-c3ccc4c(c3)NC(=O)C4)cc(=O)n2c1 [Compound 575] |  | A (A denotes >20-fold) |  | 0.1 to 0.5 |
| Cc1cc(C(C)Nc2ccccc2S(N)(=O)=O)c2nc(-c3ccncc3)cc(=O)n2c1 (stereo not drawn) [Compound 346] |  | A (A denotes >20-fold) |  | 0.5 to 2 |
| Cc1cc([C@H](C)Nc2cccc3c2CCC(=O)N3)c2nc(N3CCOCC3)cc(=O)n2c1 [Compound 688] | > 2 |  | C (C denotes ≤5-fold) |  |
| Cc1cc([C@H](C)Nc2cnncc2C(=O)O)c2nc(N3CCOCC3)cc(=O)n2c1 [Compound 376] |  | C (C denotes ≤5-fold) |  | > 2 |

| SMILES | IC50 (EGF stimulation) [µM] | T47D pAKT S473 HTRF IC50 (H1047R): T47D (H1047R) selectivity over SKBR3 (WT) [1] | T47D pAKT S473 HTRF IC50 (H1047R): T47D (H1047R) selectivity over SKBR3 (WT) [2] | IC50 [3] [µM] |
| --- | --- | --- | --- | --- |
| Cc1cc(C(C)Oc2ccccc2C2(O)CS(=O)(=O)C2)c2nc(-c3cccc(F)c3)c(C)c(=O)n2c1 (stereo not drawn) [Compound 1382] |  | A (A denotes >20-fold) |  |  |
| CNC(=O)c1ccc(-c2cc(=O)n3cc(C)cc(C(C)Nc4ccccc4C(=O)O)c3n2)c(C)c1 (stereo not drawn) [Compound 356] |  | C (C denotes ≤5-fold) |  | > 2 |
| CNC(=O)C#Cc1ccc(-c2nc3c([C@H](C)Nc4ccccc4C(=O)O)cc(C)cn3c(=O)c2C)cc1F [Compound 1265] | > 2 | C (C denotes ≤5-fold) |  |  |
| Cc1cc([C@@H](C)Nc2ccccc2C(N)=O)c2nc(-c3ccnc(C4CC4)c3)c(C)c(=O)n2c1 [Compound 1089] | > 2 | C (C denotes ≤5-fold) |  |  |
| Cc1cc(C(C)Nc2ccccc2C(=O)O)c2nc(C#CC3CC3)c(C)c(=O)n2c1 (stereo not drawn) [Compound 1186] | 0.1 to 0.5 | A (A denotes >20-fold) |  |  |
| Cc1cc(C(C)Nc2ccccc2C(=O)O)c2nc(N3C[C@H]4C[C@@H](C5CCN(S(C)(=O)=O)CC5)C[C@H]4C3)cc(=O)n2c1 (stereo partly drawn) [Compound 843] |  |  | B (B denotes 20-fold≥value>5-fold) |  |
| Cc1cc([C@H](C)Nc2ccccc2CC(=O)O)c2nc(N3CCSCC3)cc(=O)n2c1 [Compound 286] |  | C (C denotes ≤5-fold) |  | > 2 |
| Cc1cc(C(C)Nc2ccccc2C(=O)O)c2nc(N3CC(Cl)C3)cc(=O)n2c1 (stereo not drawn) [Compound 363] |  | A (A denotes >20-fold) |  | 0.1 to 0.5 |
| Cc1cc([C@@H](C)Nc2ccccc2C(=O)O)c2nc(-c3cccc(C(F)F)c3)c(C)c(=O)n2c1 [Compound 972, (R)-2-((1-(2-(3-(difluoromethyl)phenyl)-3,7-dimethyl-4-oxo-4H-pyrido[1,2-a]pyrimidin-9-yl)ethyl)amino)benzoic acid] | < 0.1 |  | A (A denotes >20-fold) |  |
| Cc1cc(C(C)Nc2ccccc2C(=O)O)c2nc(Nc3ccc(C(=O)O)cc3)cc(=O)n2c1 (stereo not drawn) [Compound 369] |  | C (C denotes ≤5-fold) |  | > 2 |
| Cc1cc([C@@H](C)Nc2ccccc2C(=O)O)c2nc(-c3ccc4c(c3)c(C)c(C)n4C)cc(=O)n2c1 [Compound 775] | < 0.1 |  | A (A denotes >20-fold) |  |
| Cc1cc(C(C)Nc2cccc(C#N)c2C(=O)O)c2nc(-c3ccc4c(c3)c(C)nn4C)cc(=O)n2c1 (stereo not drawn) [Compound 981] | > 2 |  | C (C denotes ≤5-fold) |  |
| C=C(C)N1CCC([C@@H]2C[C@@H]3CN(c4cc(=O)n5cc(C)cc([C@H](C)Nc6ccccc6C(=O)O)c5n4)C[C@@H]3C2)CC1 [Compound 796] | > 2 |  | C (C denotes ≤5-fold) |  |
| Cc1cc(C(C)Nc2cccc3c2=NCN=3)c2nc(N3CCOCC3)cc(=O)n2c1 (stereo not drawn) [Compound 782] | > 2 |  | C (C denotes ≤5-fold) |  |
| Cc1cc([C@H](C)Nc2ccccc2-c2ccnnc2)c2nc(N3C[C@@H](C)O[C@@H](C)C3)cc(=O)n2c1 [Compound 700] |  |  | A (A denotes >20-fold) |  |
| Cc1cc(C(C)Nc2ccccc2C(=O)O)c2nc(-c3ccc(CN4CCN(C(=O)C5CC5)CC4)c(F)c3)cc(=O)n2c1 (single isomer, unassigned) [Compound 421] |  | C (C denotes ≤5-fold) |  | > 2 |
| Cc1cc([C@H](C)Nc2ccccc2C(=O)O)c2nc(-c3cccc(F)c3)c(C(C)C)c(=O)n2c1 [Compound 1278] | > 2 | C (C denotes ≤5-fold) |  |  |
| Cc1cc([C@H](C)Nc2ccccc2C(=O)O)c2nc(C3CCC(C)(C)CC3)cc(=O)n2c1 [Compound 624] |  | C (C denotes ≤5-fold) |  | > 2 |
| Cc1cc(C(C)Nc2ccccc2C(=O)O)c2nc(-c3ccc[nH]c3=O)cc(=O)n2c1 (stereo not drawn) [Compound 144] |  | C (C denotes ≤5-fold) |  | > 2 |
| Cc1cc(C(C)Nc2ccccc2C(=O)O)c2nc(N3CCC4(CC3)CC(=O)N4)cc(=O)n2c1 (stereo not drawn) [Compound 490] |  | C (C denotes ≤5-fold) |  | > 2 |
| Cc1cc(C(C)Nc2ccccc2C(=O)O)c2nc(N3CCS(=O)(=O)CC3)cc(=O)n2c1 (stereo not drawn) [Compound 137] |  | C (C denotes ≤5-fold) |  | > 2 |
| Cc1cc(C(C)Nc2ccccc2C(N)=O)c2nc(-c3ccncc3)cc(=O)n2c1 (stereo not drawn) [Compound 438] |  | C (C denotes ≤5-fold) |  | > 2 |
